Data as given in publication PMC9769694, “Discovery of Two Inhibitors of the Type IV Pilus Assembly ATPase PilB as Potential Antivirulence Compounds” (Microbiology Spectrum, 2022).

System: M. xanthus
Assay: Growth in liquid culture
Type: cell-based, Myxococcus xanthus
Conditions: up to 512 μM (highest tested), data not shown
Source text: These include many bacteria with alarming prevalence for causing antibiotic-resistant infection ([12]). […] This is important because, for the development of antivirulence chemotherapies, the small molecules should not have an inhibitory effect on bacterial growth. Otherwise, they would select for resistance, just like antibiotics. From a chemical structure perspective, levodopa is 3,4-dihydroxyphenylalanine (Fig. 2), or phenylalanine with two hydroxyl groups. […] These preliminary studies of structure and activity relationships are consistent with benserazide and levodopa being specific inhibitors of PilB. As mentioned earlier, work with trifluoperazine ([25]) and P4MP4 ([26], [27]) has provided the proof of principle for antivirulence therapies with anti-T4P compounds. It is also encouraging that a compound targeting the adhesin function of the type 1 pilus of the uropathogenic E. coli (UPEC) ([47]) has moved to the clinical trial phase in the drug development pipeline ([48]).

## NC(CO)C(=O)NNCc1ccc(O)c(O)c1O (centres unmarked) [benserazide]
  effect on growth in liquid culture: neither benserazide nor levodopa had any discernible effect on the growth

## N[C@@H](Cc1ccc(O)c(O)c1)C(=O)O [levodopa, 3,4-dihydroxyphenylalanine]
  effect on growth in liquid culture: neither benserazide nor levodopa had any discernible effect on the growth
